Publication PMC9297976 (Journal of Applied Toxicology, 2021)

What was measured:
Japanese medaka = conditions: ref Flynn et al. (2018); cited from earlier work
medaka Esr1 (mEsr1) [1] = molecular target: T1, medaka Esr1 (mEsr1) (Oryzias latipes, UniProt P50241); test: Medaka Esr1 reporter gene assay, antagonist assay; assay type: cell-based, Japanese medaka (Oryzias latipes); conditions: E2 spiked at 0.2 nM (A); MAC = 1.0 × 10^−5 M
T1 sequence (P50241 1-620): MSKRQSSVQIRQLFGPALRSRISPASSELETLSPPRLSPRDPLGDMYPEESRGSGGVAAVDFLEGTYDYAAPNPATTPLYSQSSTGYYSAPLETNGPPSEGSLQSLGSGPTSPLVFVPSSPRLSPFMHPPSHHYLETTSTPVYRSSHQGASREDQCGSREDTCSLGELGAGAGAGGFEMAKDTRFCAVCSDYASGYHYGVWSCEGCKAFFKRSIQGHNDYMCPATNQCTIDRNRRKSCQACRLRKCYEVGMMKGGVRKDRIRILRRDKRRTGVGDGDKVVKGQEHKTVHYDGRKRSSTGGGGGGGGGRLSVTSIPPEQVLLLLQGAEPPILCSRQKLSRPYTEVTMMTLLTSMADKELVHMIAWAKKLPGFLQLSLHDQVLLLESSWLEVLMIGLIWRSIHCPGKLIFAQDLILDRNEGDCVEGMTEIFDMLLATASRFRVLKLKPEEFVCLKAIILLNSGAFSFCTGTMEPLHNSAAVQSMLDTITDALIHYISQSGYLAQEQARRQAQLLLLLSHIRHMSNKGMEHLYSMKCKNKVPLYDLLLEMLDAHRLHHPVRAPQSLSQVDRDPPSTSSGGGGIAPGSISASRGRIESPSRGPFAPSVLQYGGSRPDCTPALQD

[2] = system: Japanese medaka (Oryzias latipes); test: Fish Short‐Term Reproduction Assay; assay type: in vivo; conditions: for GSI Female / GSI Male / HSI Female / HSI Male / Length Female / Length Male / Weight Female / Weight Male: completion of exposure
medaka ARβ (mArβ) [3] = molecular target: T2, medaka ARβ (mArβ) (Oryzias latipes, UniProt D1MV73); test: Medaka ARβ reporter gene assay, agonist assay; assay type: cell-based, Japanese medaka (Oryzias latipes); conditions: MAC = 1.0 × 10^−5 M
T2 sequence (D1MV73 1-744): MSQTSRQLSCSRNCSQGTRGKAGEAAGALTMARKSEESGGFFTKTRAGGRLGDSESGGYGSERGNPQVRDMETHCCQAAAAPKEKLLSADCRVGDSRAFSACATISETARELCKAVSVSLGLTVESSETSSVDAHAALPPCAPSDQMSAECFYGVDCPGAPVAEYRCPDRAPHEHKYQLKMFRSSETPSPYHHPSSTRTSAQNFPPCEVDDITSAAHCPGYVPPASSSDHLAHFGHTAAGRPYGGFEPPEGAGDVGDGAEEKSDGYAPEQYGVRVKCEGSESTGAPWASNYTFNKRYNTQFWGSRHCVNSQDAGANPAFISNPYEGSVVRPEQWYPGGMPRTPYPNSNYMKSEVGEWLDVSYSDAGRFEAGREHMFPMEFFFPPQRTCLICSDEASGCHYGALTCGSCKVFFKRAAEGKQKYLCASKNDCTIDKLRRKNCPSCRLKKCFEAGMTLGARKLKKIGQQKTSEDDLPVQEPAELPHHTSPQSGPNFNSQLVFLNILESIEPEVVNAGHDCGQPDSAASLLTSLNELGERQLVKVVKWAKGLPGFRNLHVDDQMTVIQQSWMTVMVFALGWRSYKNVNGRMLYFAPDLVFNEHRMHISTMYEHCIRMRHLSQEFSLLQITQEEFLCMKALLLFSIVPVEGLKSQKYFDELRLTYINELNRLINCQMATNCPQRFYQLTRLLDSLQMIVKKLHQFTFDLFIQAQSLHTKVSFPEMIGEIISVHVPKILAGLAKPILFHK

medaka Esr1 (mEsr1) [4] = molecular target: T1, medaka Esr1 (mEsr1); test: cell-based; design: species or system Japanese medaka (Oryzias latipes)
medaka ARβ (mArβ) [5] = molecular target: T2, medaka ARβ (mArβ); test: Medaka ARβ reporter gene assay, antagonist assay; assay type: cell-based, Japanese medaka (Oryzias latipes); conditions: 11‐KT spiked at 10 nM (C); MAC = 1.0 × 10^−5 M
[6] = 598 μg/L measured, 21 d, sig. ↑ vs control
[7] = 952 μg/L measured, 21 d, sig. ↑ vs control
[8] = measured concentration 196 μg/L
[9] = measured concentration 598 μg/L
[10] = measured concentration 952 μg/L

SMILES: CCOP(=S)(OCC)Oc1cc(C)nc(C(C)C)n1 [DZ, Diazinon]
- LOEC on fecundity (Japanese medaka): 2.9 µg/L
- LOEC on growth (Japanese medaka): 5.2 µg/L
- Antagonistic activity (medaka Esr1 (mEsr1) [1]): NE (MAC = 1.0 × 10^−5 M)^(A)
- Individuals with symptoms of presumed paralysis of motor function ([2]; 38 μg/L): 12.5%
- Fertility rate ([2]; 38 μg/L measured, 21 d): 96 ± 0.8%
- Hepatic VTG, female ([2]; 38 μg/L measured, 21 d): 2,665 ± 1942 ng/mg‐liver
- Hepatic VTG, male ([2]; 38 μg/L measured, 21 d): 0.13 ± 0.16 ng/mg‐liver
- Mortality ([2]; 38 μg/L measured, 21 d): 4.2%
- Mortality, number of dead fish ([2]; 38 μg/L measured, 21 d): 1
- Number of fertilized eggs (per female per day) ([2]; 38 μg/L measured, 21 d): 18 ± 0.7
- Number of total eggs (per female per day) ([2]; 38 μg/L measured, 21 d): 19 ± 0.6
- SSC female (joint plates with papillary processes) ([2]; 38 μg/L measured, 21 d): 0 ± 0
- SSC male (joint plates with papillary processes) ([2]; 38 μg/L measured, 21 d): 82 ± 16
- Fish with symptoms of presumed paralysis of motor function (in words) ([2]; 196 μg/L level and above): all fish
- Hepatic VTG, female ([2]; 196 μg/L measured, 21 d): 1722 ± 1,394 ng/mg‐liver
- Hepatic VTG, male ([2]; 196 μg/L measured, 21 d): 0.08 ± 0.14 ng/mg‐liver
- Mortality ([2]; 196 μg/L measured, 21 d): 4.2%
- Mortality, number of dead fish ([2]; 196 μg/L measured, 21 d): 1
- SSC female (joint plates with papillary processes) ([2]; 196 μg/L measured, 21 d): 0 ± 0
- SSC male (joint plates with papillary processes) ([2]; 196 μg/L measured, 21 d): 84 ± 19
- Fertility rate ([2]; 196 μg/L measured, 21 d, sig. ↓ vs control): 12 ± 6.3%
- Hepatic VTG, female ([2]; 598 μg/L measured, 21 d): 661 ± 552 ng/mg‐liver
- Hepatic VTG, male ([2]; 598 μg/L measured, 21 d): 0.06 ± 0.04 ng/mg‐liver
- SSC female (joint plates with papillary processes) ([2]; 598 μg/L measured, 21 d): 0 ± 0
- SSC male (joint plates with papillary processes) ([2]; 598 μg/L measured, 21 d): 89 ± 17
- Mortality [2, 6]: 42%
- Mortality, number of dead fish [2, 6]: 10
- Fertility rate ([2]; 598 μg/L measured, 21 d, sig. ↓ vs control): 55 ± 6.7%
- Hepatic VTG, female ([2]; 952 μg/L measured, 21 d): 1,621 ± 1,314 ng/mg‐liver
- Hepatic VTG, male ([2]; 952 μg/L measured, 21 d): 0.89 ± 1.67 ng/mg‐liver
- SSC female (joint plates with papillary processes) ([2]; 952 μg/L measured, 21 d): 0 ± 0
- SSC male (joint plates with papillary processes) ([2]; 952 μg/L measured, 21 d): 89 ± 15
- Mortality [2, 7]: 58%
- Mortality, number of dead fish [2, 7]: 14
- Fecundity, number of total eggs (in words) ([2]; 21 d): statistically significant decrease
- LOECmVTG ([2]; LOEC on VTG induction in males): ND (>952) μg/L
- LOECREPRO ([2]; LOEC on reproduction (fecundity and/or fertility)): 196 µg/L
- LOECTOX ([2]; lowest observed effect concentration on mortality): 196 µg/L
- GSI Female ([2]; measured concentration 38 μg/L): 12.3 ± 1.3%
- GSI Male ([2]; measured concentration 38 μg/L): 0.9 ± 0.4%
- HSI Female ([2]; measured concentration 38 μg/L): 5.3 ± 1.20%
- HSI Male ([2]; measured concentration 38 μg/L): 2.8 ± 1.70%
- Length Female ([2]; measured concentration 38 μg/L): 30.7 ± 1.0 mm
- Length Male ([2]; measured concentration 38 μg/L): 30.1 ± 0.6 mm
- Weight Female ([2]; measured concentration 38 μg/L): 338 ± 36 mg
- Weight Male ([2]; measured concentration 38 μg/L): 294 ± 21 mg
- GSI Female [2, 8]: 6.8 ± 3.5%
- GSI Male [2, 8]: 0.6 ± 0.2%
- HSI Female [2, 8]: 2.0 ± 0.70%
- HSI Male [2, 8]: 1.6 ± 0.60%
- Length Female [2, 8]: 28.5 ± 1.1 mm
- Length Male [2, 8]: 28.5 ± 0.6 mm
- Weight Female [2, 8]: 217 ± 19 mg
- Weight Male [2, 8]: 200 ± 14 mg
- GSI Female [2, 9]: 3.3 ± 0.7%
- GSI Male [2, 9]: 0.4 ± 0.1%
- HSI Female [2, 9]: 1.9 ± 0.30%
- HSI Male [2, 9]: 1.2 ± 0.40%
- Length Female [2, 9]: 28.7 ± 0.0 mm
- Length Male [2, 9]: 29.6 ± 0.2 mm
- Weight Female [2, 9]: 203 ± 47 mg
- Weight Male [2, 9]: 190 ± 13 mg
- GSI Female [2, 10]: 6.9 ± 2.4%
- GSI Male [2, 10]: 0.5 ± 0.1%
- HSI Female [2, 10]: 1.6 ± 0.50%
- HSI Male [2, 10]: 1.5 ± 0.60%
- Length Female [2, 10]: 27.5 ± 0.8 mm
- Length Male [2, 10]: 28.3 ± 1.2 mm
- Weight Female [2, 10]: 203 ± 26 mg
- Weight Male [2, 10]: 183 ± 20 mg
- Agonistic activity (medaka ARβ (mArβ) [3]): NE (MAC = 1.0 × 10^−5 M)
- Agonistic activity PC10 (medaka Esr1 (mEsr1) [4]): PC10 = 1.0 × 10^−5 M
- In vitro positive: Esr (medaka Esr1 (mEsr1) [4]; mode of action in which EC50 or PC10 was obtained in RGA): Esr
- Antagonistic activity (medaka ARβ (mArβ) [5]): NE (MAC = 1.0 × 10^−5 M)^(C)
